Measurements published in patent US6676928B2, “Perfluoroalkyl-containing complexes with polar radicals, process for their production and their use” (Schering Aktiengesellschaft, priority 2000, dated 2004).
Values joined by “and” are separate entries in the source; they are usually repeats but may differ in a detail not shown here. Identical values can stand only once.

Key:
[1] = Organ distribution (including tumor and lymph node concentration) after intravenous administration in prostate-cancer-carrying rats; type: in vivo, rats (Cop-inbreeding, Dunning R3327 MAT-Lu prostate cancer); details: rat i.v. 100 μmol Gd/kg
Description: Organ Distribution (Including Tumor and Lymph Node Concentration) After Intravenous Administration of the Contrast Medium According to the Invention From Example 3 in Prostate-cancer-Carrying Rats.
After intravenous administration of 100 μmol of total gadolinium/kg of body weight of the title compound of Example 3 in rats (Cop-inbreeding Dunning R3327 MAT-Lu prostate cancer i.m.-implanted 12 days earlier), the metal content in various organs, in tumors and in lymph nodes (pooled as mesenteral and peripheral lymph nodes) was determined 10 minutes, 1 and 24 hours after administration (MW=SD, n=3).

[2] = 39° C., 0.47 T; cited from earlier work
[3] = 39° C., 0.47 T; cited from earlier work; remark: listed apart in the source
[4] = tested on: infarcted tissue (kidney, myocardium); details: two cases: infarction-kidney and myocardium; cited from earlier work
[5] = blood (58 ml of blood/kg of body weight), 10 min p.i.
[6] = blood (58 ml of blood/kg of body weight), 1 h p.i.
[7] = blood (58 ml of blood/kg of body weight), 24 h p.i.
[8] = intestine (emptied), 10 min p.i.
[9] = mes. LK (pooled mesenteral lymph nodes), 10 min p.i.
[10] = mes. LK (pooled mesenteral lymph nodes), 1 h p.i.
[11] = mes. LK (pooled mesenteral lymph nodes), 24 h p.i.
[12] = muscle (only tissue sample from right lower leg muscle), 10 min p.i.
[13] = muscle (only tissue sample from right lower leg muscle), 1 h p.i.
[14] = muscle (only tissue sample from right lower leg muscle), 24 h p.i.
[15] = periph. LK (pooled peripheral lymph nodes), 10 min p.i.
[16] = periph. LK (pooled peripheral lymph nodes), 1 h p.i.
[17] = periph. LK (pooled peripheral lymph nodes), 24 h p.i.
[18] = remainder of the body, 24 h p.i.

## CC(C(=O)NCC(=O)NCCCC[C@H](NC(=O)CNC(=O)C(C)N1CCN(CC(=O)[O-])CCN(CC(=O)[O-])CCN(CC(=O)[O-])CC1)C(=O)N1CCN(S(=O)(=O)C(F)(F)C(F)(F)C(F)(F)C(F)(F)C(F)(F)C(F)(F)C(F)(F)C(F)(F)F)CC1)N1CCN(CC(=O)[O-])CCN(CC(=O)[O-])CCN(CC(=O)[O-])CC1.[Gd+3].[Gd+3] (stereo partly drawn) [Example 3]
[1]; 10 min p.i., less the remainder of the body
  % Dosis pro Gesamtgewebe, Summe der Organe (sum total of all of the organs): 46,35%
[1]; 1 h p.i., less the remainder of the body
  % Dosis pro Gesamtgewebe, Summe der Organe (sum total of all of the organs): 41,79%
[1]; 24 h p.i.
  % Dosis pro Gesamtgewebe, Bilanz (balance): 96,24%
  % Dosis pro Gesamtgewebe, Summe der Organe (sum total of all of the organs): 50,95%
[1]; [5]
  % Dosis pro Gesamtgewebe (% dose per total tissue): 35,18%
  Gd-Konzentration (Gd-concentration): 621 µmol/L
[1]; [6]
  % Dosis pro Gesamtgewebe (% dose per total tissue): 30,63%
  Gd-Konzentration (Gd-concentration): 534 µmol/L
[1]; [7]
  % Dosis pro Gesamtgewebe (% dose per total tissue): 9,58%
  Gd-Konzentration (Gd-concentration): 169 µmol/L
[1]; brain, 10 min p.i.
  % Dosis pro Gesamtgewebe (% dose per total tissue): 0,09%
  Gd-Konzentration (Gd-concentration): 16 µmol/L
[1]; brain, 1 h p.i.
  % Dosis pro Gesamtgewebe (% dose per total tissue): 0,10%
  Gd-Konzentration (Gd-concentration): 16 µmol/L
[1]; brain, 24 h p.i.
  % Dosis pro Gesamtgewebe (% dose per total tissue): 0,03%
  Gd-Konzentration (Gd-concentration): 5 µmol/L
[1]; feces 0-24 h
  % Dosis pro Gesamtgewebe (% dose per total tissue): 8,91%
  Gd-Konzentration (Gd-concentration): 561 µmol/L
[1]; femur, 10 min p.i.
  % Dosis pro Gesamtgewebe (% dose per total tissue): 0,50%
  Gd-Konzentration (Gd-concentration): 61 µmol/L
[1]; femur, 1 h p.i.
  % Dosis pro Gesamtgewebe (% dose per total tissue): 0,50%
  Gd-Konzentration (Gd-concentration): 64 µmol/L
[1]; femur, 24 h p.i.
  % Dosis pro Gesamtgewebe (% dose per total tissue): 0,26%
  Gd-Konzentration (Gd-concentration): 33 µmol/L
[1]; heart, 10 min p.i.
  % Dosis pro Gesamtgewebe (% dose per total tissue): 0,40%
  Gd-Konzentration (Gd-concentration): 177 µmol/L
[1]; heart, 1 h p.i.
  % Dosis pro Gesamtgewebe (% dose per total tissue): 0,33%
  Gd-Konzentration (Gd-concentration): 151 µmol/L
[1]; heart, 24 h p.i.
  % Dosis pro Gesamtgewebe (% dose per total tissue): 0,15%
  Gd-Konzentration (Gd-concentration): 65 µmol/L
[1]; [8]
  % Dosis pro Gesamtgewebe (% dose per total tissue): 2,48%
  Gd-Konzentration (Gd-concentration): 146 µmol/L
[1]; intestine (emptied), 1 h p.i.
  % Dosis pro Gesamtgewebe (% dose per total tissue): 1,85%
  Gd-Konzentration (Gd-concentration): 130 µmol/L
[1]; intestine (emptied), 24 h p.i.
  % Dosis pro Gesamtgewebe (% dose per total tissue): 1,63%
  Gd-Konzentration (Gd-concentration): 101 µmol/L
[1]; kidney, 10 min p.i.
  % Dosis pro Gesamtgewebe (% dose per total tissue): 1,70%
  Gd-Konzentration (Gd-concentration): 359 µmol/L
[1]; kidney, 1 h p.i.
  % Dosis pro Gesamtgewebe (% dose per total tissue): 2,00%
  Gd-Konzentration (Gd-concentration): 394 µmol/L
[1]; kidney, 24 h p.i.
  % Dosis pro Gesamtgewebe (% dose per total tissue): 1,38%
  Gd-Konzentration (Gd-concentration): 292 µmol/L
[1]; liver, 10 min p.i.
  % Dosis pro Gesamtgewebe (% dose per total tissue): 3,79%
  Gd-Konzentration (Gd-concentration): 137 µmol/L
[1]; liver, 1 h p.i.
  % Dosis pro Gesamtgewebe (% dose per total tissue): 3,93%
  Gd-Konzentration (Gd-concentration): 136 µmol/L
[1]; liver, 24 h p.i.
  % Dosis pro Gesamtgewebe (% dose per total tissue): 5,37%
  Gd-Konzentration (Gd-concentration): 172 µmol/L
[1]; lung, 10 min p.i.
  % Dosis pro Gesamtgewebe (% dose per total tissue): 1,30%
  Gd-Konzentration (Gd-concentration): 344 µmol/L
[1]; lung, 1 h p.i.
  % Dosis pro Gesamtgewebe (% dose per total tissue): 1,27%
  Gd-Konzentration (Gd-concentration): 321 µmol/L
[1]; lung, 24 h p.i.
  % Dosis pro Gesamtgewebe (% dose per total tissue): 0,56%
  Gd-Konzentration (Gd-concentration): 146 µmol/L
[1]; [9]
  % Dosis pro Gesamtgewebe (% dose per total tissue): 0,11%
  Gd-Konzentration (Gd-concentration): 155 µmol/L
[1]; [10]
  % Dosis pro Gesamtgewebe (% dose per total tissue): 1,10%
  Gd-Konzentration (Gd-concentration): 160 µmol/L
[1]; [11]
  % Dosis pro Gesamtgewebe (% dose per total tissue): 0,09%
  Gd-Konzentration (Gd-concentration): 127 µmol/L
[1]; [12]
  % Dosis pro Gesamtgewebe (% dose per total tissue): 0,12%
  Gd-Konzentration (Gd-concentration): 41 µmol/L
[1]; [13]
  % Dosis pro Gesamtgewebe (% dose per total tissue): 0,08%
  Gd-Konzentration (Gd-concentration): 40 µmol/L
[1]; [14]
  % Dosis pro Gesamtgewebe (% dose per total tissue): 0,03%
  Gd-Konzentration (Gd-concentration): 13 µmol/L
[1]; pancreas, 10 min p.i.
  % Dosis pro Gesamtgewebe (% dose per total tissue): 0,25%
  Gd-Konzentration (Gd-concentration): 99 µmol/L
[1]; pancreas, 1 h p.i.
  % Dosis pro Gesamtgewebe (% dose per total tissue): 0,23%
  Gd-Konzentration (Gd-concentration): 95 µmol/L
[1]; pancreas, 24 h p.i.
  % Dosis pro Gesamtgewebe (% dose per total tissue): 0,18%
  Gd-Konzentration (Gd-concentration): 55 µmol/L
[1]; [15]
  % Dosis pro Gesamtgewebe (% dose per total tissue): 0,13%
  Gd-Konzentration (Gd-concentration): 115 µmol/L
[1]; [16]
  % Dosis pro Gesamtgewebe (% dose per total tissue): 0,19%
  Gd-Konzentration (Gd-concentration): 186 µmol/L
[1]; [17]
  % Dosis pro Gesamtgewebe (% dose per total tissue): 0,11%
  Gd-Konzentration (Gd-concentration): 108 µmol/L
[1]; [18]
  % Dosis pro Gesamtgewebe (% dose per total tissue): 31,05%
  Gd-Konzentration (Gd-concentration): 103 µmol/L
[1]; spleen, 10 min p.i.
  % Dosis pro Gesamtgewebe (% dose per total tissue): 0,25%
  Gd-Konzentration (Gd-concentration): 184 µmol/L
[1]; spleen, 1 h p.i.
  % Dosis pro Gesamtgewebe (% dose per total tissue): 0,23%
  Gd-Konzentration (Gd-concentration): 161 µmol/L
[1]; spleen, 24 h p.i.
  % Dosis pro Gesamtgewebe (% dose per total tissue): 0,25%
  Gd-Konzentration (Gd-concentration): 161 µmol/L
[1]; stomach (emptied), 10 min p.i.
  % Dosis pro Gesamtgewebe (% dose per total tissue): 0,47%
  Gd-Konzentration (Gd-concentration): 90 µmol/L
[1]; stomach (emptied), 1 h p.i.
  % Dosis pro Gesamtgewebe (% dose per total tissue): 0,50%
  Gd-Konzentration (Gd-concentration): 93 µmol/L
[1]; stomach (emptied), 24 h p.i.
  % Dosis pro Gesamtgewebe (% dose per total tissue): 0,27%
  Gd-Konzentration (Gd-concentration): 48 µmol/L
[1]; tumor, 10 min p.i.
  % Dosis pro Gesamtgewebe (% dose per total tissue): 0,20%
  Gd-Konzentration (Gd-concentration): 82 µmol/L
[1]; tumor, 1 h p.i.
  % Dosis pro Gesamtgewebe (% dose per total tissue): 0,40%
  Gd-Konzentration (Gd-concentration): 126 µmol/L
[1]; tumor, 24 h p.i.
  % Dosis pro Gesamtgewebe (% dose per total tissue): 0,46%
  Gd-Konzentration (Gd-concentration): 100 µmol/L
[1]; urine 0-24 h
  % Dosis pro Gesamtgewebe (% dose per total tissue): 36,38%
  Gd-Konzentration (Gd-concentration): 60 µmol/L

## CNC[C@H](O)[C@@H](O)[C@H](O)[C@H](O)CO.CNC[C@H](O)[C@@H](O)[C@H](O)[C@H](O)CO.O=C([O-])CN(CCN(CC(=O)[O-])CC(=O)O)CCN(CC(=O)[O-])CC(=O)O.[Gd+3] [MAGNEVIST ®]
[2]
  T^1 - Relaxivity in Water: 3.8 mmol⁻¹ s⁻¹
[3]
  T^1 - Relaxivity in Plasma: 4.8 mmol⁻¹ s⁻¹

## gadolinium-mesoporphyrin [Gd-MP]
[4]
  ratio of the signal intensities in MRI, infarcted in comparison to healthy tissue: 2.10 and 2.19

## CNC(=O)CN(CCN(CCN(CC(=O)[O-])CC(=O)NC)CC(=O)[O-])CC(=O)[O-].[Gd+3] [OMNISCAN ®]
[2]
  T^1 - Relaxivity in Water: 3.8 mmol⁻¹ s⁻¹
[3]
  T^1 - Relaxivity in Plasma: 4.4 mmol⁻¹ s⁻¹
